Assay results published in PubChem BioAssay (NCI).
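Assay format: 96-well plates, 48-hour exposure. GI50 marks 50% less growth. TGI denotes the concentration required for complete inhibition of growth.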

Columns and labels:
Experiment in all cases: NCI anticancer screen, dose series, 48 h
ACHN renal = system: ACHN renal
MALME-3M melanoma = system: MALME-3M melanoma
RPMI-8226 leukemia = system: RPMI-8226 leukemia
SK-MEL-2 melanoma = system: SK-MEL-2 melanoma
IGROV1 ovarian = system: IGROV1 ovarian
UACC-257 melanoma = system: UACC-257 melanoma
HCC-2998 colon = system: HCC-2998 colon
SNB-75 CNS = system: SNB-75 CNS
CAKI-1 renal = system: CAKI-1 renal
UO-31 renal = system: UO-31 renal

Row | SMILES | GI50 (ACHN renal) | TGI (ACHN renal) | GI50 (MALME-3M melanoma) | TGI (MALME-3M melanoma) | GI50 (RPMI-8226 leukemia) | TGI (RPMI-8226 leukemia) | GI50 (SK-MEL-2 melanoma) | TGI (SK-MEL-2 melanoma) | GI50 (IGROV1 ovarian) | TGI (IGROV1 ovarian) | GI50 (UACC-257 melanoma) | TGI (UACC-257 melanoma) | GI50 (HCC-2998 colon) | TGI (HCC-2998 colon) | GI50 (SNB-75 CNS) | TGI (SNB-75 CNS) | GI50 (CAKI-1 renal) | TGI (CAKI-1 renal) | GI50 (UO-31 renal) | TGI (UO-31 renal)
1 | C=C1C(=O)O[C@H]2[C@H]1CC/C(CNC(=O)/C=C/c1ccc(Br)cc1)=C\CC[C@@]1(C)O[C@@H]21 | 0.848 µM | 2.08 µM | 1.33 µM | 2.78 µM | 0.448 µM | 3.26 µM | 1.4 µM | 3.02 µM | 1.24 µM | 3.05 µM | 1.43 µM | 2.97 µM | 1.56 µM | 3 µM | 1.23 µM | 2.49 µM | 1.12 µM | 2.34 µM | 0.97 µM | 2.19 µM
2 | Cn1cc(-c2nonc2-c2c[nH]c3ccccc23)c2ccccc21 | 0.527 µM | 13.4 µM | 0.635 µM | 17.7 µM | 0.369 µM | 5.96 µM | 0.496 µM | 14.6 µM | 0.574 µM | 18.3 µM | 0.918 µM | 20.5 µM | 1.26 µM | 7.08 µM | 0.188 µM | 0.761 µM | 0.413 µM | 15 µM | 0.323 µM | 7.65 µM
3 | COc1cccc2c1C(=O)c1c(O)c3c(c(O)c1C2=O)CC(O)(C(C)=O)CC3OC1CC(N)C(O)C(C)O1 (stereo not drawn) | 0.0176 µg/mL | 0.1 µg/mL | 0.0663 µg/mL | 0.356 µg/mL | 0.0159 µg/mL | 0.165 µg/mL | 0.102 µg/mL | 0.403 µg/mL | – | 1.68 µg/mL | 0.116 µg/mL | 2.06 µg/mL | 0.243 µg/mL | 0.912 µg/mL | 0.0256 µg/mL | 0.138 µg/mL | – | 0.015 µg/mL | 0.26 µg/mL | 5.46 µg/mL
4 | C=C(Cn1c(=O)c2ccccc2c2ccccc21)c1ccc(C(=O)Nc2ccccc2N)cc1 | 43.4 µM | > 100 µM | 5.19 µM | > 92.8 µM | 0.765 µM | 4.36 µM | > 86.3 µM | > 100 µM | 1.36 µM | > 29 µM | > 41.4 µM | > 100 µM | 31.1 µM | > 100 µM | 4.41 µM | > 94.4 µM | 23.3 µM | > 100 µM | 2.28 µM | > 63.2 µM
5 | COc1ccc(C#Cc2ccccc2C#CCCCCO)cc1 | 21.7 µM | 45 µM | 23 µM | 45.4 µM | 27.3 µM | 72.7 µM | 19.8 µM | 38.9 µM | 18.8 µM | 34.1 µM | 19.5 µM | 35.8 µM | 17.9 µM | 33.3 µM | 18.4 µM | 38.9 µM | 22.3 µM | 40.3 µM | 21.2 µM | 39.6 µM
6 | CC1CC2C3CC(F)C4=CC(=O)C=CC4(C)C3(F)C(O)CC2(C)C1(O)C(=O)COC(=O)C(C)(C)C (stereo not drawn) | – | > 100 µM | – | > 100 µM | – | > 100 µM | – | > 100 µM | – | > 100 µM | – | > 100 µM | – | > 100 µM | – | > 100 µM | – | > 100 µM | – | > 100 µM
7 | CN(C)CCCOc1ccccc1NC1=C(Cl)C(=O)C(Nc2ccccc2OCCCN(C)C)=C(Cl)C1=O | 0.941 µM | 2.13 µM | 0.923 µM | 2.43 µM | 2.01 µM | 5.07 µM | 1.83 µM | 3.58 µM | 0.355 µM | 0.969 µM | 1.17 µM | 2.69 µM | 0.604 µM | 1.31 µM | 1.62 µM | 3.02 µM | 1.07 µM | 2.27 µM | 1.21 µM | 2.46 µM
8 | COc1cccc(C2CC(c3cc(OC)c(OC)c(OC)c3)=NN2)c1 (stereo not drawn) | 21.7 µM | 53 µM | 23.4 µM | > 100 µM | 5.18 µM | 26 µM | 13.2 µM | 54.6 µM | 2.02 µM | 13.1 µM | 12.7 µM | 36.4 µM | 4.78 µM | 18.3 µM | 15.6 µM | > 100 µM | 14.7 µM | 50.5 µM | 14.4 µM | 38.8 µM
9 | S=c1sc2c(Cl)ncnc2n1-c1ccccc1 | – | 30 µM | – | 23.9 µM | – | 56.7 µM | – | 21.3 µM | – | 28.2 µM | – | 33.6 µM | – | 31.1 µM | – | 27.4 µM | – | 13.8 µM | – | 32.7 µM
10 | CCN(CC)CCNC(=O)c1ccccc1NC(=O)C(=O)Nc1ccccc1C(=O)NCCN(CC)CC | – | > 100 µM | – | 37.7 µM | – | > 100 µM | – | > 100 µM | – | > 100 µM | – | 35.5 µM | – | > 100 µM | – | > 100 µM | – | > 100 µM | – | > 100 µM
11 | CC/C(Cc1ccccc1)=C(\c1ccc(OCCN2CCCCCC2)cc1)c1ccc(OC(=O)NCc2ccccc2)cc1 | 1.49 µM | 5.34 µM | 0.951 µM | 1.94 µM | 1.16 µM | 2.87 µM | 8.65 µM | 17.7 µM | 2.31 µM | 8.82 µM | 3.8 µM | 11.3 µM | 2.01 µM | 8.05 µM | 6.09 µM | 13.2 µM | 4.52 µM | 10.5 µM | 2.03 µM | 7.98 µM
12 | O=[N+]([O-])c1ccc(Nc2ccccc2-c2ccccc2)c2nonc12 | 20.8 µM | 87.5 µM | 5.2 µM | 29.1 µM | 6.91 µM | > 100 µM | 6.16 µM | 20.3 µM | 12 µM | > 63.6 µM | 12.3 µM | 79.1 µM | 11.7 µM | 27.2 µM | 13.6 µM | 36.6 µM | 12.3 µM | 50.2 µM | 8.14 µM | 29.9 µM
13 | COC1=CC(c2ccc[nH]2)=N/C1=C\c1[nH]c(C)c(C(=O)OCc2ccccc2)c1C | 0.081 µM | 1.15 µM | 0.495 µM | 2.1 µM | 0.116 µM | 1.8 µM | 0.0445 µM | 0.196 µM | 0.286 µM | 9 µM | 0.316 µM | 1.83 µM | 0.087 µM | 1.71 µM | 0.127 µM | 0.632 µM | 0.0483 µM | 1.76 µM | 0.144 µM | 0.336 µM
